Laboratory results: US12441708B2, “Cereblon ligands and bifunctional compounds comprising the same” (Arvinas Operations, Inc., priority 2017, dated 2025)
Where two headings read alike, the source gives them in different places.

Experiments:
estrogen receptor = test: ERE luciferase assay in T47D-KBluc cells; assay type: cell-based; conditions: Homo sapiens, 24 hours, read-out: ER Target Engagement IC50
Protocol: 1. ERE Luciferase Assay for Compounds in Table 2
T47D-1(Bluc cells (ATCC® ECRL 2 65, T47D human breast cancer cells stably transfected with estrogen responsive element/promoter/luciferase reporter gene) were seeded into 96-well white opaque plates in IR: PM growth medium supplemented with 10% fetal bovine serum (FBS) and allowed to adhere overnight in a 37° C. humidified incubator. The following day, cells were treated with PROTACs in a 12-point concentration curve (top final concentration of 300 nM with subsequent concentrations being 3-fold less with […] being the lowest concentration in the assay). Each PROTAC was tested independently in two experiments on 96-well plates. After 24 hours, media was removed and lysis buffer was added to the wells. Following lysis, Bright-Glo™ Luciferase Assay Substrate (Promega, Madison WI) was added and the luciferase activity was measured using a Cytation 3 plate reader (BioTek™, Winooski, VT). Each compound was assayed in duplicate and the activity was calculated as […] using GraphPad Prism software (San Diego, CA).

[1] = target: estrogen receptor-alpha (ERα) (Homo sapiens (Human), UniProt P03372); test: Estrogen receptor-alpha (ERα) degradation assay in MCF7 cells (In-Cell Western / western blot); assay type: cell-based; conditions: % degraded, read-out: ER Degradation Dmax
estrogen receptor-alpha (ERα), sequence (P03372 whole entry): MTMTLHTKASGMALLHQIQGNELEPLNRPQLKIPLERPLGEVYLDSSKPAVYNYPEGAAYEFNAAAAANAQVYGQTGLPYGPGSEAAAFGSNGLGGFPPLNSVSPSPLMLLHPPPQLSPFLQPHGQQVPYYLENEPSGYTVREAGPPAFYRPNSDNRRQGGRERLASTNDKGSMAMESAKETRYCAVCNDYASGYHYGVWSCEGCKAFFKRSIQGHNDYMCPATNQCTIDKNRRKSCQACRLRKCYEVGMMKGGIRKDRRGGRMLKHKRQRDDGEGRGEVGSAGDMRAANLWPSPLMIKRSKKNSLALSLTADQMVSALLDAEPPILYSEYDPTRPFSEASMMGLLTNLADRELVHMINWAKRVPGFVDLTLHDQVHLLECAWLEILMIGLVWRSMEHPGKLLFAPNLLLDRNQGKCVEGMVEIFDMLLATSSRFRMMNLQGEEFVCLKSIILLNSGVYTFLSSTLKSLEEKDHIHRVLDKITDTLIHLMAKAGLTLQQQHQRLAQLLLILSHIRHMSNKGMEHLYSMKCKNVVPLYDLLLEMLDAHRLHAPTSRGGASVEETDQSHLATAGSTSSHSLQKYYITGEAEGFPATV
Protocol: 2. Estrogen Receptor-Alpha (ERα) Degradation Assay in MCF-7 Cells Using Western Blot Method for Table 5
The exemplary novel ERα degraders were assessed for their activity in degrading ERα in MCF-7 cells via western blot. The assay was carried out in the presence of 10% FBS or high percentage of human or mouse serum. Protocols of the western blot assay are described below.
MCF7 cells were grown in DMEM/F12 with 10% FBS and seeded at 24,000 cells per well in 100 μl into 96-well clear tissue culture plates. The following day, the cells were treated with PROTACs in a […] concentration curve with 100 nM being the top concentration and serial dilutions to make the other concentrations (30 nM, 10 nM. 3 nM, 1 nM, and 0.3 nM). At all concentrations, 0.01% DMSO is the final concentration in the well. The following day, the plates are aspirated, washed with 50 μl of cold PBS. The cells are lysed with 50 μl/well 4° C. Cell Lysis Buffer (Catalog #9803; Cell Signaling Technology, Danvers, MA) (20 mM Tris-HCL (pH 7.5), 150 mM NaCl, 1 mM Na2EDTA, 1 mM EGTA, 1% Triton, 2.5 mM sodium pyrophosphate, 1 mM B-glycerophosphate, 1 mM sodium vanadate, 1 μg/ml leupeptin). Lysates were clarified at 16,000× g for 10 minutes, and 2 μg of protein was subjected to SDS-PAGE analysis and followed by immunoblotting according to standard protocols. The antibodies used were ERα (Cell Signaling, Technologies Catalog #8644), and Tubulin (Sigma Catalog #T9026; St. Louis, MO). Detection reagents were Clarity Western ECL substrate (Bio-Rad Catalog 4170-5060; Hercules, CA).
Alternatively, MCF7 cells were grown in DMEM/F12 with 10% FBS and seeded at 24,000 cells per well in 500 μl in 24-well clear tissue culture plates. The following day, the cells were treated with PROTACs in a 5-point concentration curve (100 nM, 33 nM, 11 nM, 3.7 nM, and 1.2 nM) in the presence of 0.01% DMSO. After 72 hours, the wells are aspirated and washed with 500 μl of PBS. The cells are lysed with 100 μl/well 4° C. Cell Lysis Buffer (Catalog #9803; Cell Signaling Technology, Danvers, MA) (20 mM Tris-HCL (pH 7.5), 150 mM NaCl, 1 mM Na2EDTA, 1 mM EGTA, 1% Triton, 2.5 mM sodium pyrophosphate, 1 mM B-glycerophosphate, 1 mM sodium vanadate, 1 ug/ml leupeptin). Lysates were clarified at 16,000× g for 10 minutes, and 2 μg of protein was subjected to SDS-PAGE analysis and followed by immunoblotting according to standard protocols. The antibodies used were ERα (Cell Signaling Technologies Catalog #8644), and Tubulin (Sigma Catalog #T9026; St. Louis, MO). Detection reagents were Clarity Western ECL substrate (Bio-Rad Catalog 4170-5060; Hercules, CA).
3. Estrogen receptor-alpha (ERα) degradation assay using In-Cell Western™ Assay for Table 5
Degradation of ERα by claimed compounds were determined in MCF7 cells using an In-Cell Western™ assay. Briefly, MCF7 cells were plated in 96-well plates (2000 cells per well in 100 μl media) and incubated at 37° C. under an atmosphere of 5% CO2 in a humidified incubator overnight. One-hundred (100) μl of media containing test compound (at 2× concentration) was added to the appropriate wells to provide 11 serially decreasing concentrations (top final concentration, 1 μM then 3-fold less for the next 10 concentrations); a vehicle control (DMSO) was also added for each compound. For each experiment, all compounds were assayed in duplicate plates. Cells were then incubated for 3 or 5 days in the above-mentioned environment. The assay was terminated by removal of media, a single wash with ice-cold PBS and the addition of […] paraformaldehyde (PFA: 4% in PBS). After 15 minutes in PFA at room temperature, the cells were permeabilized in Tris-phosphate-buffered saline with Tween (0.1%) (TBST) supplemented with Triton X-100 (0.5%) for 15 minutes. Cells were then blocked in BSA (TBST with BSA, 3%) for one hour. […] The cells were incubated overnight at 4° C. […]

| IC50 (estrogen receptor) [nM] | Dmax ([1]; 5 day incubation) [%] | Dmax ([1]; 3 day incubation) [%] | Compound |
| --- | --- | --- | --- |
| 1 to 10 | > 75 | – | O=C1CCC(NC(=O)c2ccc(N3CCN(CCCCCOc4ccc([C@@H]5c6ccc(O)cc6CC[C@@H]5c5ccccc5)cc4)CC3)cn2)C(=O)N1 (mixture of isomers) [PROTAC-91, rac-N-(2,6-dioxopiperidin-3-yl)-5-(4-(5-(4-((1R,2S)-6-hydroxy-2-phenyl-1,2,3,4-tetrahydronaphthalen-1-yl)phenoxy)pentyl)piperazin-1-yl)picolinamide] |
| < 1 | ≤ 50 | – | O=C1CCC(n2cc(-c3ccc(N4CCN(CCCOc5ccc([C@@H]6c7ccc(O)cc7CC[C@@H]6c6ccccc6)cc5)CC4)nc3)cn2)C(=O)N1 (mixture of isomers) [PROTAC-111, rac-3-(4-(6-(4-(3-(4-((1R,2S)-6-hydroxy-2-phenyl-1,2,3,4-tetrahydronaphthalen-1-yl)phenoxy)propyl)piperazin-1-yl)pyridin-3-yl)-1H-pyrazol-1-yl) piperidine-2,6-dione] |
| 10 to 100 | – | ≤ 50 | O=C1CCC(n2ncc(Oc3ccc(O[C@H]4CCN(CCOc5ccc([C@H]6c7ccc(O)cc7CC[C@H]6c6ccc(F)cc6)cc5)C4)nc3)cc2=O)C(=O)N1 (mixture of isomers) [PROTAC-93, rac-3-(4-((6-(((R)-1-(2-(4-((1R,2S)-2-(4-fluorophenyl)-6-hydroxy-1,2,3,4-tetrahydronaphthalen-1-yl)phenoxy)ethyl)pyrrolidin-3-yl)oxy)pyridin-3-yl)oxy)-6-oxopyridazin-1(6H)-yl)piperidine-2,6-dione] |
| 1 to 10 | ≤ 50 | – | O=C1CCC(n2ncc(Oc3ccc(CCCCOc4ccc([C@@H]5c6ccc(O)cc6CC[C@@H]5c5ccc(F)cc5)cc4)nc3)cc2=O)C(=O)N1 (mixture of isomers) [PROTAC-98, rac-3-(4-((6-(4-(4-((1R,2S)-2-(4-fluorophenyl)-6-hydroxy-1,2,3,4-tetrahydro-naphthalen-1-yl)phenoxy)butyl)pyridin-3-yl)oxy)-6-oxopyridazin-1(6H)-yl)piperidine-2,6-dione] |
| 10 to 100 | – | ≤ 50 | O=C1CCC(n2ncc(Oc3ccc(O[C@@H]4CCN(CCOc5ccc([C@H]6c7ccc(O)cc7CC[C@H]6c6ccc(F)cc6)cc5)C4)nc3)cc2=O)C(=O)N1 (mixture of isomers) [PROTAC-97, rac-3-(4-((6-(((R)-1-(2-(4-((1S,2R)-2-(4-fluorophenyl)-6-hydroxy-1,2,3,4-tetrahydronaphthalen-1-yl)phenoxy)ethyl)pyrrolidin-3-yl)oxy)pyridin-3-yl)oxy)-6-oxopyridazin-1(6H)-yl)piperidine-2,6-dione] |
| 1 to 10 | 50 to 75 | – | O=C1CCC(n2ncc(N3CCN(CCCCCOc4ccc([C@@H]5c6ccc(O)cc6CC[C@@H]5c5ccccc5)cc4)CC3)cc2=O)C(=O)N1 (mixture of isomers) [PROTAC-100, rac-3-(4-(4-(5-(4-((1R,2S)-6-hydroxy-2-phenyl-1,2,3,4-tetrahydronaphthalen-1-yl)phenoxy)pentyl)piperazin-1-yl)-6-oxopyridazin-1(6H)-yl)piperidine-2,6-dione] |
| 10 to 100 | ≤ 50 | – | O=C1CCC(n2ncc(Oc3ccc(CCCCCOc4ccc([C@@H]5c6ccc(O)cc6CC[C@@H]5c5ccc(F)cc5)cc4)nc3)cc2=O)C(=O)N1 (mixture of isomers) [PROTAC-99, rac-3-(4-((6-(5-(4-((1R,2S)-2-(4-fluorophenyl)-6-hydroxy-1,2,3,4-tetrahydro-naphthalen-1-yl)phenoxy)pentyl)pyridin-3-yl)oxy)-6-oxopyridazin-1(6H)-yl)piperidine-2,6-dione] |
| < 1 | – | ≤ 50 | O=C1CCC(n2ncc(Oc3ccc(O[C@@H]4CCN(CCOc5ccc([C@@H]6c7ccc(O)cc7CC[C@@H]6c6ccc(F)cc6)cc5)C4)nc3)cc2=O)C(=O)N1 (stereo partly drawn) [PROTAC-103, 3-(4-((6-(((R)-1-(2-(4-((1R,2S)-2-(4-fluorophenyl)-6-hydroxy-1,2,3,4-tetrahydronaphthalen-1-yl)phenoxy)ethyl)pyrrolidin-3-yl)oxy)pyridin-3-yl)oxy)-6-oxopyridazin-1(6H)-yl)piperidine-2,6-dione] |
| ≥ 100 | – | ≤ 50 | O=C1CCC(n2ncc(Oc3ccc(N4CCN(CCOc5ccc([C@H]6c7ccc(O)cc7CC[C@H]6c6ccc(F)cc6)cc5)CC4)nc3)cc2=O)C(=O)N1 (mixture of isomers) [PROTAC-95, rac-3-(4-((6-(4-(2-(4-((1R,2S)-2-(4-fluorophenyl)-6-hydroxy-1,2,3,4-tetrahydronaphthalen-1-yl)phenoxy)ethyl)piperazin-1-yl)pyridin-3-yl)oxy)-6-oxopyridazin-1(6H)-yl)piperidine-2,6-dione] |
| < 1 | – | ≤ 50 | O=C1CCC(n2ncc(Oc3ccc(O[C@H]4CCN(CCOc5ccc([C@@H]6c7ccc(O)cc7CC[C@@H]6c6ccc(F)cc6)cc5)C4)nc3)cc2=O)C(=O)N1 (mixture of isomers) [PROTAC-94, rac-3-(4-((6-(((R)-1-(2-(4-((1S,2R)-2-(4-fluorophenyl)-6-hydroxy-1,2,3,4-tetrahydronaphthalen-1-yl)phenoxy)ethyl)pyrrolidin-3-yl)oxy)pyridin-3-yl)oxy)-6-oxopyridazin-1(6H)-yl)piperidine-2,6-dione] |
| 1 to 10 | – | ≤ 50 | Cc1nc2c(OCCN3CCN(CCOc4ccc(Oc5c(-c6ccc(Br)cc6)sc6cc(O)ccc56)cc4)CC3)cccc2c(=O)n1C1CCC(=O)NC1=O (centres unmarked) [PROTAC-108, 3-(8-(2-(4-(2-(4-((2-(4-bromophenyl)-6-hydroxybenzo[b]thiophen-3-yl)oxy)phenoxy)ethyl)piperazin-1-yl)ethoxy)-2-methyl-4-oxoquinazolin-3(4H)-yl)piperidine-2,6-dione] |
| 1 to 10 | > 75 | – | O=C1CCC(n2ncc(N3CCN(CC4CCN(c5ccc([C@@H]6c7ccc(O)cc7CC[C@@H]6c6ccccc6)cc5)CC4)CC3)cc2=O)C(=O)N1 (stereo partly drawn) [PROTAC-102, 3-[4-[4-[[1-[4-[(1R, 2 S)-6-hydroxy-2-phenyl-tetralin-1-yl]phenyl]-4-piperidyl]methyl]piperazin-1-yl]-6-oxo-pyridazin-1-yl]piperidine-2,6-dione] |
| < 1 | 50 to 75 | – | O=C1CCC(n2cc(-c3ccc(N4CCN(CCCOc5ccc([C@@H]6c7ccc(O)cc7CC[C@@H]6c6ccccc6)cc5)CC4)cc3)cn2)C(=O)N1 (mixture of isomers) [PROTAC-110, rac-3-(4-(4-(4-(3-(4-((1R,2S)-6-hydroxy-2-phenyl-1,2,3,4-tetrahydronaphthalen-1-yl)phenoxy)propyl)piperazin-1-yl)phenyl)-1H-pyrazol-1-yl) piperidine-2,6-dione] |
